Converted amounts (≈) assume the structure as drawn. Where two headings read alike, the source gives them in different places.

Series [1] has as its system Mycobacterium tuberculosis (Mtb) H37Rv ATCC 27294. Description: microbe, parasite or virus in culture. It counts as cell-based.
Series [2] can be described thus: in vivo. The following applies: male, Wistar, rat, po, 100 mg/kg.
For series [3], the system named is Mycobacterium tuberculosis (Mtb) H37Rv. The experiment in a line: Mtb minimal bactericidal concentration (MBC), plating from MIC plates. It counts as cell-based. To be noted: Table 5, read-out: Mtb H37Rv MBC. As to the method: Aliquots from sample wells (MIC and higher) from the MIC plates were diluted 1:10 and plated on 7H10 agar plates. Plates were incubated at 37° C. for 3-4 weeks, CFU was enumerated.

In series [4] the test system is hypoxia induced non-replicating persistent (NRP) Mtb cells. Description: Activity against hypoxia induced non-replicating persistent (NRP) Mtb (HBC, Wayne model). It counts as cell-based, Mycobacterium tuberculosis. The following applies: for Mtb H37Rv HBC: Table 5.
Series [5] has as its system A549 human lung carcinoma cells. It counts as cell-based. As to the method: The in vitro cytotoxicity of compounds were measured against A549 human lung carcinoma cells as describedin Eakin et. al (2012). Briefly, A549 cells (ATCC) were grown in RPMI medium (GIBCO-BRL) containing 10% heat-inactivated fetal bovine serum (GIBCO-BRL) and 1 mM L-glutamine (GIBCO-BRL) at a density of 1,000 cells/well. After incubation of the cells with compound in a CO2 atmosphere at 37° C. for 72 hours, cell viability was determined following addition of […] of resazurin solution (Sigma), by measuring fluorescence (excitation at 535 nm, emission at 590 nm) using a fluorimeter.

The mark [6] stands for this setting: Mycobacterium tuberculosis, Table 1, read-out: Mtb MIC.
The mark [7] stands for this setting: Mycobacterium tuberculosis, Table 5, read-out: Mtb H37Rv MIC.

The term AUC(0-inf) denotes the area under the concentration-time curve extrapolated to infinity. A lower AUC(0-inf) goes with less exposure. By Cmax is commonly meant the highest concentration seen after dosing. Usually Tmax stands for the time from dosing to the highest level. One may read the half-life as the time needed for the level to fall by half in the phase considered. Lower therefore signals rapid decline. Take `COc1ncnc(Cn2cc(C(=O)NCC(F)F)c3ncc(C)cc32)c1C` [Compound 30, N-(2,2-difluoroethyl)-1-((6-methoxy-5-methylpyrimidin-4-yl)methyl)-6-methyl-1H-pyrrolo[3,2-b]pyridine-3-carboxamide]: the MIC in series [1] (setting [6]) is under 0.391 µM. In series [2], the AUC(0-inf) was 23.3 ± 11.7 µM·h, the highest level (Cmax) was 3.4 ± 2 µM, the time to peak (Tmax) is 3.3 ± 2.3 h and the half-life is 3.3 ± 1.1 h.
A word on the MBC: it is the lowest tested concentration that kills the bacteria rather than only halting them. As for `Cc1ccc(Cn2cc(C(=O)NCCF)c3ncccc32)c(C)c1` [Compound 31, 1-(2,4-dimethylbenzyl)-N-(2-fluoroethyl)-1H-pyrrolo[3,2-b]pyridine-3-carboxamide], the results for the MIC in series [1] (setting [6]) and in series [1] (setting [7]) were 1.56 µM (≈ 0.508 µg/mL) and 1.56 to 3.12 µM (≈ 0.508 to 1.02 µg/mL), respectively. The MBC in series [3] lay within 3.12 to 6.25 µM (≈ 1.02 to 2.03 µg/mL). Also, the “Mtb H37Rv HBC” value in series [4] is 12.5 to 25 µM. Moreover, in series [5] (human, 72 h), the “MMIC (A549)” value was over 82 µM.
Regarding `COc1cccc(F)c1Cn1cc(C(=O)NCC2CC2)c2ncccc21` [Compound 32, N-(cyclopropylmethyl)-1-(2-fluoro-6-methoxybenzyl)-1H-pyrrolo[3,2-b]pyridine-3-carboxamide], the MIC in series [1] (setting [6]) was 1.56 µM (≈ 0.551 µg/mL); in series [1] (setting [7]) it was 1.56 to 3.12 µM (≈ 0.551 to 1.1 µg/mL). For the same compound, the MBC in series [3] was in the range of 1.56 to 6.25 µM (≈ 0.551 to 2.21 µg/mL). Besides, the “Mtb H37Rv HBC” value in series [4] is over 200 µM. Further, the “MMIC (A549)” value in series [5] (Table 5) was over 100 µM.
On to `COc1ncnc(Cn2cc(C(=O)NCC(F)F)c3ncc(C)cc32)c1C` [Compound 33, N-(2,2-difluoroethyl)-1-((6-methoxy-5-methylpyrimidin-4-yl)methyl)-6-methyl-1H-pyrrolo[3,2-b]pyridine-3-carboxamide], for which, in series [1] (Table 1, read-out: Mtb MIC), the MIC is reported as under 0.39 µM.
`Cc1cnc2c(C(=O)NCCO)cn(Cc3ncnc(N(C)C)c3C)c2c1` [Compound 34, 1-((6-(dimethylamino)-5-methylpyrimidin-4-yl)methyl)-N-(2-hydroxyethyl)-6-methyl-1H-pyrrolo[3,2-b]pyridine-3-carboxamide]: the MIC in series [1] (setting [6]) is under 0.39 µM. In series [2], the total exposure AUC(0-inf) was 166 ± 43.9 µM·h, the highest level (Cmax) was 31.5 ± 3 µM, the Tmax is 2 h and the half-life is 4.6 h.
Turning to `Cc1cnc2c(C(=O)NCCO)cn(Cc3ncnc(OC(F)F)c3C)c2c1` [Compound 35, 1-((6-(Difluoromethoxy)-5-methylpyrimidin-4-yl)methyl)-N-(2-hydroxyethyl)-6-methyl-1H-pyrrolo[3,2-b]pyridine-3-carboxamide], the MIC in series [1] (setting [6]) is under 0.39 µM.
Regarding `COc1cnc2c(C(=O)NCCF)cn(Cc3ncnc(OC)c3C)c2c1` [Compound 36, N-(2-fluoroethyl)-6-methoxy-1-((6-methoxy-5-methylpyrimidin-4-yl)methyl)-1H-pyrrolo[3,2-b]pyridine-3-carboxamide], the MIC in series [1] (setting [6]) is under 0.39 µM.
The same measure, in the same setting: for `COc1cnc2c(C(=O)NCC(F)F)cn(Cc3ncnc(OC)c3C)c2c1` [Compound 37, N-(2,2-difluoroethyl)-6-methoxy-1-((6-methoxy-5-methylpyrimidin-4-yl)methyl)-1H-pyrrolo[3,2-b]pyridine-3-carboxamide] the value was under 0.39 µM; for `COc1cnc2c(C(=O)NCCO)cn(Cc3ncnc(OC)c3C)c2c1` [Compound 38, N-(2-hydroxyethyl)-6-methoxy-1-((6-methoxy-5-methylpyrimidin-4-yl)methyl)-1H-pyrrolo[3,2-b]pyridine-3-carboxamide], 0.78 µM (≈ 0.29 µg/mL).
As for `COc1cnc2c(C(=O)NCCF)cn(Cc3ncnc(N(C)C)c3C)c2c1` [Compound 39, 1-((6-(Dimethylamino)-5-methylpyrimidin-4-yl)methyl)-N-(2-fluoroethyl)-6-methoxy-1H-pyrrolo[3,2-b]pyridine-3-carboxamide], the MIC in series [1] (setting [6]) is under 0.39 µM.
Still for that read-out and setting: in the case of `COc1cnc2c(C(=O)NCC(F)F)cn(Cc3ncnc(N(C)C)c3C)c2c1` [Compound 40, N-(2,2-Difluoroethyl)-1-((6-(dimethylamino)-5-methylpyrimidin-4-yl)methyl)-6-methoxy-1H-pyrrolo[3,2-b]pyridine-3-carboxamide] it was under 0.39 µM; in that of `COc1cnc2c(C(=O)NCCO)cn(Cc3ncnc(N(C)C)c3C)c2c1` [Compound 41, 1-((6-(Dimethylamino)-5-methylpyrimidin-4-yl)methyl)-N-(2-hydroxyethyl)-6-methoxy-1H-pyrrolo[3,2-b]pyridine-3-carboxamide], under 0.39 µM; in that of `COc1cnc2c(C(=O)NCCF)cn(Cc3ncnc(OC(F)F)c3C)c2c1` [Compound 42, 1-((6-(Difluoromethoxy)-5-methylpyrimidin-4-yl)methyl)-N-(2-fluoroethyl)-6-methoxy-1H-pyrrolo[3,2-b]pyridine-3-carboxamide], under 0.39 µM.
The same measure, in the same setting: for `COc1cnc2c(C(=O)NCC(F)F)cn(Cc3ncnc(OC(F)F)c3C)c2c1` [Compound 43, N-(2,2-Difluoroethyl)-1-((6-(difluoromethoxy)-5-methylpyrimidin-4-yl)methyl)-6-methoxy-1H-pyrrolo[3,2-b]pyridine-3-carboxamide] the value was under 0.39 µM; for `COc1cnc2c(C(=O)NCCO)cn(Cc3ncnc(OC(F)F)c3C)c2c1` [Compound 44, 1-((6-(difluoromethoxy)-5-methylpyrimidin-4-yl)methyl)-N-(2-hydroxyethyl)-6-methoxy-1H-pyrrolo[3,2-b]pyridine-3-carboxamide], 0.78 µM (≈ 0.318 µg/mL).
Take `Cc1cnc2c(C(=O)NCCF)cn(Cc3ncc(C)nc3C)c2c1` [Compound 45, 1-((3,5-dimethylpyrazin-2-yl)methyl)-N-(2-fluoroethyl)-6-methyl-1H-pyrrolo[3,2-b]pyridine-3-carboxamide]: the MIC in series [1] (setting [6]) is under 0.39 µM.
Consider `Cc1cnc2c(C(=O)NCC(F)F)cn(Cc3ncc(C)nc3C)c2c1` [Compound 46, N-(2,2-difluoroethyl)-1-((3,5-dimethylpyrazin-2-yl)methyl)-6-methyl-1H-pyrrolo[3,2-b]pyridine-3-carboxamide], for which the MIC in series [1] (setting [6]) is under 0.39 µM.
`NNC(=O)c1ccncc1` [Isoniazid]: the “reduction in the bacterial CFU of NRP Mtb” value in series [4] was “no reduction”.

The values are drawn from patent US9163020B2, “Azaindole compounds, synthesis thereof, and methods of using the same” (Global Alliance for TB Drug Development, priority 2013, dated 2015).
